According to patent US20170298051A1, “ACTIVATOR OF ADIPONECTIN RECEPTOR” (THE UNIVERSITY OF TOKYO, priority 2013, published 2017):

What was measured:
[1] = target: T1, AdipoR1 (Homo sapiens, UniProt Q96A54); assay: Measurement of AMPK phosphorylation ability (Assay 1), HEK 293T cells, Western blotting; assay type: cell-based; design: HEK 293T cells (ATCC; CRL-3216, medium; host or cells: HEK 293T; conditions: 10 minutes
T1 sequence (Q96A54 1-375): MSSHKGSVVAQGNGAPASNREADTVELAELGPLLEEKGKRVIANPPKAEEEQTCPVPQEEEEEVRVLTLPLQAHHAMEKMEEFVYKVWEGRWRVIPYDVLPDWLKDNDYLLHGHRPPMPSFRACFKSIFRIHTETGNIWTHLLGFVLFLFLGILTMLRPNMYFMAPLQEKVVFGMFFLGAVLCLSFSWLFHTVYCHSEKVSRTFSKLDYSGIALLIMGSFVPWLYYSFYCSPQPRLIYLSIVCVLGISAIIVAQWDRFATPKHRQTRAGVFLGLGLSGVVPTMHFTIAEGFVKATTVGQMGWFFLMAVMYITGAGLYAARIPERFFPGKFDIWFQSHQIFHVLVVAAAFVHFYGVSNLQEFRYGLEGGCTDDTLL
Procedure: The AMPK phosphorylation ability of the respective compounds according to the present invention was measured by using differentiated C2C12 cells or HEK 293T cells.
HEK 293T cells (ATCC; CRL-3216, medium; DMEM, Fetal Bovine Serum (FBS)) were cultured in a 12- or 24-well plate until they reached 100% confluency (37° C., 5% CO2).
After starvation, a test compound listed in Tables 10 and 11 (concentration: 25 μM, 50 μM) was added thereto, and after 10 minutes, the medium was discarded and the plate was frozen with liquid nitrogen.
To the 12- or 24-well cell plate which had been frozen was added 100 or 150 μL of Cell lysis buffer pH 7.4 (50 mM HEPES (pH 7.4), 2 mM sodium orthovanadate, 10 mM sodium pyrophosphate, 10 mM NaF, 2 mM EDTA, 2 mM EGTA, 0.1% (v/v) NP-40, 0.2 mM PMSF), and the cells were scraped off with a cell scraper, suspended and transferred into a micro centrifugal tube. And then, the cells were ultrasonically crushed (1 second×3 times) with a sonicator. Centrifugation was performed at 4° C. at 15,000 rpm for 15 minutes, and the supernatant was recovered into a new tube.
To 100 μL of the supernatant was added 25 μL of 5× sample buffer (280 mM Tris-HCl (pH 6.9), 40% glycerol, 10% (3-mercaptoethanol, 13% SDS, a small amount of bromophenol blue) and mixed together. The rest of the supernatant was used for protein quantification, and the protein concentrations were uniformed by adding 1× sample buffer depending on the concentration of each sample.
An electrophoresis chamber was filled with 1× SDS buffer (25 mM Tris-HCl, 250 mM glycine, 0.1% SDS), and the sample was applied to a well of polyacrylamide gel. Electrophoresis was performed until the bromophenol blue in the sample reached to the bottom of the gel.
A filter paper was soaked in 1× Transfer buffer sufficiently, above which the PVDF membrane and the gel after electrophoresis were stacked in this order, and thereabove a filter paper which had been soaked in 1× Transfer buffer sufficiently was further stacked, from which an air was removed and the resultant was set in semi-dry type transfer apparatus and transferred (7V, 35 minutes).
An unnecessary portion of the blotted membrane was cutoff, and the rest was immediately soaked in blocking buffer (5% skimmed milk in Rinse buffer), and shaken at room temperature at 40 rpm for 3 hours.
After blocking, the membrane was transferred into Rinse buffer, and washed at room temperature for 10 minutes while shaking. The membrane was soaked in a primary antibody solution (AMPK alpha Antibody (Cell signaling; #2532) 1/1,000 in Rinse buffer, Phospho-AMPK alpha (Thr172) (40H9) antibody (Cell signaling; #2535) 1/1,000 in Rinse buffer), and shaken at 4° C. at 40 rpm overnight.
The membrane was soaked in a secondary antibody solution (goat anti-rabbit IgG-HRP Antibody (Santa Cruz; sc-2030) 1/2,000 in Rinse buffer), and shaken at room temperature at 40 rpm for 1 hour.
After the membrane was washed for 45 minutes in the same way as after the primary antibody reaction, the membrane was soaked in a chemiluminescent reaction solution (ECL Western Blotting Detection Reagents, GE Healthcare) for about 1 minute. An excess of the reaction solution was removed, and then the membranes were arranged on a transparent film and sandwiched with it, with which an X-ray film was exposed in a darkroom (for about several seconds to 60 seconds) to develop the film.
The X-ray film was scanned to take the image, for which the band was measured by using the image analysis software “Image J” to determine the respective amounts of pAMPK and AMPK.

[2] = target: T1, AdipoR1; assay: Measurement of AMPK phosphorylation ability (Assay 2), HEK 293T cells with unrelated or AdipoR1 siRNA; assay type: cell-based; design: HEK 293T cells (ATCC; CRL-3216, medium; host or cells: HEK 293T
Procedure: HEK 293T cells (medium; DMEM, 10% FBS) were cultured in a 24-well plate until they reached 60% confluency (37° C., 5% CO2).
First, 1 μL of Lipofectamine RNAiMAX and 50 μL of OPTI-MEM were mixed, and then 5 μM siRNA (sense siRNA sequence: […]tt (SEQ ID NO: 1)) and 50 μL of OPTI-MEM were mixed and the resultants were left to stand at room temperature for 5 minutes. And then, the 1 μL Lipofectamine RNAiMAX/50 μL OPTI-MEM and the 5 μM siRNA/50 μL OPTI-MEM were mixed, and the resultant was left to stand at room temperature for 10 minutes, which was added to the cells.
After 5 minutes, the medium (DMEM, 10% FBS) was replaced, and after starvation on the next day, a test compound listed in Tables 10 and 11 was added thereto. After 10 minutes, the medium was discarded and the plate was frozen with liquid nitrogen.
The respective amounts of pAMPK and AMPK were determined in the same way as in the above Assay 1.

Structure (SMILES)	pAMPK/AMPK (%) ([1]; 25 μM)	pAMPK/AMPK (%) ([1]; 50 μM)	pAMPK/AMPK (ratio) siRNA, AdipoR1 siRNA [2] [ratio]	pAMPK/AMPK (ratio) siRNA, unrelated siRNA [2] [ratio]
O=C(NCCC(=O)N1CCN(Cc2cccc(O)c2)CC1)c1ccc2ccccc2c1 [Compound 70]	84.71	88.96	2.46	2.43
NC(=O)c1ccc(OCC(=O)NC2CCN(Cc3ccc(Cl)c(Cl)c3)CC2)cc1 [Compound 19]	83.61	95.02	3.75	3.88
CC(C)(C)c1ccc(C(=O)NCCC(=O)N2CCN(Cc3cccc4cccnc34)CC2)cc1 [Compound 53]	91.44	81.80	2.04	2.26
CC(C)c1ccc(CN2CCN(C(=O)CCNC(=O)c3ccc([N+](=O)[O-])cc3)CC2)cc1 [Compound 64]	80.29	83.01	3.57	4.86
COc1ccc(CN2CCC(NC(=O)COc3ccc(C(F)(F)F)cc3)CC2)cc1F [Compound 35]	80.77	83.74	2.01	3.38
COc1cc(C(C)=O)ccc1OCC(=O)NC1CCN(Cc2ccc(Cl)c(Cl)c2)CC1 [Compound 15]	88.71	88.18	3.49	3.27
O=C(NCCC(=O)N1CCN(Cc2cccc(OC(F)(F)F)c2)CC1)c1ccc([N+](=O)[O-])cc1 [Compound 69]	80.04	100.79	4.03	5.28
COc1ccc(CN2CCN(C(=O)CCNC(=O)c3ccc(Cl)cc3)CC2)c(OC)c1OC [Compound 60]	34.44	76.81		
CC(=O)c1ccc(OCC(=O)NC2CCN(Cc3ccccc3)CC2C)cc1 (centres unmarked) [Compound 14]	63.62	51.87		
CCOc1ccc(CN2CCN(C(=O)CCNC(=O)c3ccc(F)cc3Cl)CC2)cc1 [Compound 61]	78.20	76.51		
CCC(=O)c1ccc(OCC(=O)NC2CCN(Cc3ccccc3)CC2C)cc1 (centres unmarked) [Compound 18]	59.58	72.81		
COc1ccc(CN2CCN(C(=O)CCNC(=O)c3ccccc3C)CC2)cc1OC [Compound 50]	39.00	71.13		

Next, values leading:

pAMPK/AMPK (%) ([1]; 25 μM)	pAMPK/AMPK (%) ([1]; 50 μM)	pAMPK/AMPK (ratio) siRNA, AdipoR1 siRNA [2] [ratio]	pAMPK/AMPK (ratio) siRNA, unrelated siRNA [2] [ratio]	Structure (SMILES)
83.83	80.12	2.69	3.11	COc1ccc(OCC(=O)NC2CCN(Cc3ccc(Cl)c(Cl)c3)CC2)cc1 [Compound 37]
112.70	87.54	2.43	2.67	CCOc1ccc(OCC(=O)NC2CCN(Cc3ccc(Cl)c(Cl)c3)CC2)cc1 [Compound 38]
80.42	84.19	2.56	2.52	O=C(COc1ccc(Oc2ccccc2)cc1)NC1CCN(Cc2ccccc2)CC1 [Compound 36]
80.04	85.28	3.16	3.42	O=C(COc1ccc(Oc2ccccn2)cc1)NC1CCN(Cc2ccc(F)cc2)CC1 [Compound 48]
122.70	89.75	2.35	2.49	Cc1ccc(OCC(=O)NC2CCN(Cc3ccc(Cl)c(Cl)c3)CC2)cc1 [Compound 30]
80.20	91.33	2.25	2.25	CCOc1ccc(OCC(=O)NC2CCN(Cc3cccc(C(F)(F)F)c3)CC2)cc1 [Compound 40]
80.93	80.11	2.74	2.58	Cc1ccccc1CN1CCC(NC(=O)COc2ccc(Oc3ccccn3)cc2)CC1 [Compound 46]
80.31	80.39	2.44	2.78	CC(c1ccccc1)N1CCC(NC(=O)COc2ccc(Oc3ccccn3)cc2)CC1 (centres unmarked) [Compound 47]
80.60	80.60	2.61	3.17	CCc1ccc(OCC(=O)NC2CCN(C(C)c3ccccc3)CC2)cc1 (centres unmarked) [Compound 31]
88.09	91.40	4.14	3.38	O=C(COc1ccc(F)cc1)NC1CCN(Cc2ccc(Cl)c(Cl)c2)CC1 [Compound 32]
81.11	83.12	1.92	2.34	NC(=O)c1ccc(OCC(=O)NC2CCN(Cc3ccc(Br)cc3)CC2)cc1 [Compound 21]
106.36	82.93	2.47	2.51	O=C(COc1ccc(C(=O)c2ccccc2)cc1)NC1CCN(Cc2ccc(Cl)cc2)CC1 [Compound 12]
106.31	84.10	2.63	2.88	O=C(COc1ccc(Cl)cc1)NC1CCN(Cc2ccc(Cl)c(Cl)c2)CC1 [Compound 33]
67.44	82.01			O=C(COc1ccc(Oc2ccccn2)cc1)NC1CCN(Cc2ccccc2)CC1 [Compound 45]
